For data set [1] the following is noted: in vivo.
The subject of another data set is rats. In words: Forced swimming test (immobility time, antidepressant activity). Conditions: parenteral, eight rats. It counts as in vivo. On the procedure:
Details of this behavioural test are described for example by Willner, Psychopharmacology 83, 1-16 (1984) and by Borsini and Meli, Psychopharmacology 94, 147-160 (1988).
Pramipexol (SND 919) was investigated on eight rats, by comparison with amineptine, a known antidepressant. Both substances were dissolved in physiological saline solution and administered by parenteral route.

For data set [2] the following is noted: in vivo. This is another data set of the same source.

A value given as a limit tells only on which side of the number the result lay.

The bioavailability is the share of a dose that reaches the circulation, judged against a reference dose that is usually intravenous. As usually defined, the half-life is the time needed for the level to fall by half in the phase considered. Read a high half-life as slow loss. With `CCCN[C@H]1CCc2nc(N)sc2C1` [SND 919, 2-amino-6-n-propyl-amino-4,5,6,7-tetrahydrobenzothiazole], the tolerability result in data set [1] was “extremely well tolerated”. The results for the Immobility time in the data set on rats (dose 0.03 mg/kg), in the data set on rats (dose 0.10 mg/kg) and in the data set on rats (dose 0.30 mg/kg) were 210 ± 14 s, 165 ± 6 s and 102 ± 17 s, respectively. Also, the bioavailability in data set [2] was above 80%. In data set [2], this compound had a half-life of 12.5 h.
`O=C(O)CCCCCCNC1c2ccccc2CCc2ccccc21` [Amineptine, reference compound]: the Immobility time in the data set on rats (dose 20.00 mg/kg) was 134 ± 19 s.

Source of the values: patent US6191153A, “Use of 2-amino-6-n-propyl-amino-4,5,6,7-tetrahydrobenzothiazole as a pharmaceutical composition having an antidepressant activity” (Boehringer Ingelheim KG, priority 1992, dated 2001).
